This passage reports viability, activity and melting point results from patent US20090253709A1 (NATIONAL DEFENSE MEDICAL CENTER, priority 2008, published 2009).

What is called melting point is the temperature, or range, at which the solid turns liquid.

System in the first data set: not listed separately
Kind of data set: MTT assay in H1299 cells. It is filed as cell-based. The following applies: human, H1299 cells (H1299/PhTERT-driven SEAP reporter system); H1299; compound concentration 1 μM; read-out: MTT (Inhibition μM ± SD). As to the method:
H1299 is a non-small cell lung cancer cell line with telomerase activity. The cell extract of H1299 cell lines can be used for selecting the telomerase activity inhibitors in vitro and the telomerase activity-inhibited substances in vivo. H1299 cell line was incubated with RPMI 1640 medium supplemented with 10% of fetal bovine serum (FBS). A total of 2×10^3 […] cells were seeded in the 96-well cell culture plate, and incubated with DMEM (GIBCO®)/glucose mixture and Medium 199 (GIBCO®)/10% FBS/1 mM sodium pyruvate (GIBCO®)/4 mM L-glutamine (GIBCO®) mixture at a ratio of 4:1 at 37° C. for 24 hours. […] After 48 hours of drug treatment, the cultured medium were collected for performing the analysis of SEAP activity. The cells were washed with 1×PBS once immediately, and the MTT assay was performed to compare the compounds with the relative toxicity or the influence to the proliferation and activity. Mitochondria is the place for cellular respiration, and there are many reductive reactions catalyzed by dehydrogenases. MTT is a water-soluble yellow compound, and the […] will be formed after reduction. This crystal can be dissolved in the organic solvent, and has high absorbance at the wavelength of 570 nm. The higher cellular activity or more cell numbers, the more generated crystal violets. Therefore, the cellular activity and cell number can be obtained by the MTT assay. MTT solution was prepared by dissolving MTT powder in PBS solution to achieve 5 mg/ml, filtrated and stored at 4° C. Lysis buffer contained 20% (w/v) of SDS in 50% of N,N-dimethylformamide (DMF, Riedel-deHaën). After the cells were incubated in the 96-well culture plate, the original medium was discarded, 100 μl of the fresh serum-free medium per well and 25 μl of MTT solution per well were added in respectively, and the cells were further incubated in the CO2 incubator at 37° C. for 4 hours. Then, 100 μl of lysis buffer per well was added in and incubated overnight in the CO2 incubator at 37° C. The absorbance at 570 nm was determined by the ELISA reader. The selection of telomerase inhibitors of the anthraquinone compounds provided in the present invention was performed by the […]-driven SEAP system. SEAP is the communication gene in this drug selection model. The SEAP inhibition was shown as follows. […] Subsequently, the linear slope of absorbance to the measuring time was calculated, and the variance of absorbance at 405 nm per minute was represented and compared with the SEAP-producing result of drug-untreated H1299 cells. In addition, the influence of the cell-treated drug solution to the cellular proliferation and the drug toxicity to the cells were considered, and the cellular growth was evaluated by the MTT assay. The drug-treated cells were analyzed by the SEAP assay and the data analysis of MTT assay at the same time. Both results were compared so as to delete the influence of cell number or the activity to SEAP, and the dose-dependent phenomenon could be anticipated in the range of drug concentration designed by the laboratory. […] Since the chemically-synthetic drugs have colors thereon, the SEAP value of drug-treatment without cells was also determined to be the background value which was deducted while treating with the drugs. The candidate drug for inhibiting telomerase on the hTERT gene expression level was evaluated and anticipated.
A general note: Tetrazolium dyes change colour on reduction, which living cells bring about.
For `CCN(CC)CC(=O)Nc1ccc2c(c1)C(=O)c1cc(NC(=O)CN(CC)CC)ccc1C2=O` [Compound 4, 2,7-Bis[2-(diethylamino)acetamido]anthraquinone], the viability at 24 h, 1 µM worked out at 101 ± 8%.

Turning to `CCCCNCC(=O)Nc1ccc2c(c1)C(=O)c1cc(NC(=O)CNCCCC)ccc1C2=O` [Compound 5, 2,7-Bis[2-(butylamino)acetamido]anthraquinone], the viability at 24 h, 1 µM was found to be 91 ± 16%.

The data set is the same for the next values; noted with them: human, H1299 cells (H1299/PhTERT-driven SEAP reporter system); H1299; compound concentration 10 μM; read-out: MTT (Inhibition μM ± SD).
With `CCN(CC)CC(=O)Nc1ccc2c(c1)C(=O)c1cc(NC(=O)CN(CC)CC)ccc1C2=O` [Compound 4, 2,7-Bis[2-(diethylamino)acetamido]anthraquinone], the viability at 24 h, 10 µM is 47 ± 7%.

As for `CCCCNCC(=O)Nc1ccc2c(c1)C(=O)c1cc(NC(=O)CNCCCC)ccc1C2=O` [Compound 5, 2,7-Bis[2-(butylamino)acetamido]anthraquinone], the viability at 24 h, 10 µM is 17 ± 9%.

Still in this data set, the particulars now being: human, H1299 cells (H1299/PhTERT-driven SEAP reporter system); H1299; compound concentration 100 μM; read-out: MTT (Inhibition μM ± SD).
As to `CCN(CC)CC(=O)Nc1ccc2c(c1)C(=O)c1cc(NC(=O)CN(CC)CC)ccc1C2=O` [Compound 4, 2,7-Bis[2-(diethylamino)acetamido]anthraquinone], the viability at 24 h, 100 µM worked out at 25 ± 3%.

`CCCCNCC(=O)Nc1ccc2c(c1)C(=O)c1cc(NC(=O)CNCCCC)ccc1C2=O` [Compound 5, 2,7-Bis[2-(butylamino)acetamido]anthraquinone]: the viability at 24 h, 100 µM came to 15 ± 11%.

System in the next data set: not listed separately
Kind of data set: MTT assay in BJ1 cells. It is filed as cell-based. The conditions noted are these: human, hTERT-BJ1-PTERT(3.4)-SEAP cells; BJ1; compound concentration 1 μM; read-out: MTT (Inhibition μM ± SD). The procedure: A total of 2×10^3 […] cells were seeded in the 96-well cell culture plate, and incubated with DMEM (GIBCO®)/glucose mixture and Medium 199 (GIBCO®)/10% FBS/1 mM sodium pyruvate (GIBCO®)/4 mM L-glutamine (GIBCO®) mixture at a ratio of 4:1 at 37° C. for 24 hours. […] After 48 hours of drug treatment, the cultured medium were collected for performing the analysis of SEAP activity. The cells were washed with 1×PBS once immediately, and the MTT assay was performed to compare the compounds with the relative toxicity or the influence to the proliferation and activity. Mitochondria is the place for cellular respiration, and there are many reductive reactions catalyzed by dehydrogenases. MTT is a water-soluble yellow compound, and the […] will be formed after reduction. This crystal can be dissolved in the organic solvent, and has high absorbance at the wavelength of 570 nm. The higher cellular activity or more cell numbers, the more generated crystal violets. Therefore, the cellular activity and cell number can be obtained by the MTT assay. MTT solution was prepared by dissolving MTT powder in PBS solution to achieve 5 mg/ml, filtrated and stored at 4° C. Lysis buffer contained 20% (w/v) of SDS in 50% of N,N-dimethylformamide (DMF, Riedel-deHaën). After the cells were incubated in the 96-well culture plate, the original medium was discarded, 100 μl of the fresh serum-free medium per well and 25 μl of MTT solution per well were added in respectively, and the cells were further incubated in the CO2 incubator at 37° C. for 4 hours. Then, 100 μl of lysis buffer per well was added in and incubated overnight in the CO2 incubator at 37° C. The absorbance at 570 nm was determined by the ELISA reader.
Take `CCN(CC)CC(=O)Nc1ccc2c(c1)C(=O)c1cc(NC(=O)CN(CC)CC)ccc1C2=O` [Compound 4, 2,7-Bis[2-(diethylamino)acetamido]anthraquinone]: the viability at 48 h, 1 µM turned out to be 116 ± 4%.

As to `CCCCNCC(=O)Nc1ccc2c(c1)C(=O)c1cc(NC(=O)CNCCCC)ccc1C2=O` [Compound 5, 2,7-Bis[2-(butylamino)acetamido]anthraquinone], the viability at 48 h, 1 µM stood at 103 ± 1%.

Still in this data set, the particulars now being: human, hTERT-BJ1-PTERT(3.4)-SEAP cells; BJ1; compound concentration 10 μM; read-out: MTT (Inhibition μM ± SD).
In the case of `CCN(CC)CC(=O)Nc1ccc2c(c1)C(=O)c1cc(NC(=O)CN(CC)CC)ccc1C2=O` [Compound 4, 2,7-Bis[2-(diethylamino)acetamido]anthraquinone], the viability at 48 h, 10 µM stood at 67 ± 2%.

For `CCCCNCC(=O)Nc1ccc2c(c1)C(=O)c1cc(NC(=O)CNCCCC)ccc1C2=O` [Compound 5, 2,7-Bis[2-(butylamino)acetamido]anthraquinone], the viability at 48 h, 10 µM amounted to 41 ± 1%.

The same data set, now with this note: human, hTERT-BJ1-PTERT(3.4)-SEAP cells; BJ1; compound concentration 100 μM; read-out: MTT (Inhibition μM ± SD).
As to `CCN(CC)CC(=O)Nc1ccc2c(c1)C(=O)c1cc(NC(=O)CN(CC)CC)ccc1C2=O` [Compound 4, 2,7-Bis[2-(diethylamino)acetamido]anthraquinone], the viability at 48 h, 100 µM came out at 50 ± 1%.

In the case of `CCCCNCC(=O)Nc1ccc2c(c1)C(=O)c1cc(NC(=O)CNCCCC)ccc1C2=O` [Compound 5, 2,7-Bis[2-(butylamino)acetamido]anthraquinone], the viability at 48 h, 100 µM is 43 ± 1%.

Another data set concerns hTERT expression. Kind of data set: SEAP assay in hTERT-BJ1-PTERT(3.4)-SEAP cells. It is filed as cell-based. The following applies: Homo sapiens; BJ1; compound concentration 1 μM; read-out: SEAP (Inhibition μM ± SD). As to the method:
A total of 2×10^3 hTERT-BJ1-PTERT(3.4)-SEAP cells were seeded in the 96-well cell culture plate, and incubated with DMEM (GIBCO®)/glucose mixture and Medium 199 (GIBCO®)/10% FBS/1 mM sodium pyruvate (GIBCO®)/4 mM L-glutamine (GIBCO®) mixture at a ratio of 4:1 at 37° C. for 24 hours. When the cells were attached in the bottom of the well, the seriously-diluted compounds with different concentrations ([…]) were treated with the cells for 48 hours, and the PTERT(3.4)-SEAP cells without drug treatment were being the control. After 48 hours of drug treatment, the cultured medium were collected for performing the analysis of SEAP activity. The cells were washed with 1×PBS once immediately, and the MTT assay was performed to compare the compounds with the relative toxicity or the influence to the proliferation and activity.
The cellular medium after the cellular incubation was transferred into the eppondorf tube, and the activity of endogeneous alkaline phosphatase was inactivated at 65° C. for 10 minutes. After centrification, the mixture was obtained by mixing 50 μl of the supernatant with the equal volume of the SEAP buffer. The mixture and the substrate (120 mM of p-nitrophenylphosphate) were preheated at 37° C. for 10 minutes respectively, and the mixture and the substrate were mixed at a ratio of 1:10 and reacted at 37° C. The absorbance of visible light at 405 nm was determined at the appropriate time intervals, and the enzymatic activity of SEAP was represented by the speed of the increasing absorbance at 405 nm.
On to `CCN(CC)CC(=O)Nc1ccc2c(c1)C(=O)c1cc(NC(=O)CN(CC)CC)ccc1C2=O` [Compound 4, 2,7-Bis[2-(diethylamino)acetamido]anthraquinone], for which the activity at 1 µM worked out at 26 ± 4%.

As to `CCCCNCC(=O)Nc1ccc2c(c1)C(=O)c1cc(NC(=O)CNCCCC)ccc1C2=O` [Compound 5, 2,7-Bis[2-(butylamino)acetamido]anthraquinone], the activity at 1 µM is 27 ± 18%.

Staying with this data set, now noted: Homo sapiens; BJ1; compound concentration 10 μM; read-out: SEAP (Inhibition μM ± SD).
Take `CCN(CC)CC(=O)Nc1ccc2c(c1)C(=O)c1cc(NC(=O)CN(CC)CC)ccc1C2=O` [Compound 4, 2,7-Bis[2-(diethylamino)acetamido]anthraquinone]: the activity at 10 µM came to 131 ± 57%.

With `CCCCNCC(=O)Nc1ccc2c(c1)C(=O)c1cc(NC(=O)CNCCCC)ccc1C2=O` [Compound 5, 2,7-Bis[2-(butylamino)acetamido]anthraquinone], the activity at 10 µM was determined as 24 ± 24%.

The same data set, now with this note: Homo sapiens; BJ1; compound concentration 100 μM; read-out: SEAP (Inhibition μM ± SD).
Take `CCN(CC)CC(=O)Nc1ccc2c(c1)C(=O)c1cc(NC(=O)CN(CC)CC)ccc1C2=O` [Compound 4, 2,7-Bis[2-(diethylamino)acetamido]anthraquinone]: the activity at 100 µM is 116 ± 34%.

On to `CCCCNCC(=O)Nc1ccc2c(c1)C(=O)c1cc(NC(=O)CNCCCC)ccc1C2=O` [Compound 5, 2,7-Bis[2-(butylamino)acetamido]anthraquinone], for which the activity at 100 µM is 80 ± 14%.

System in a further data set: not given
Assay: not given
Conditions: not given
Take `CCN(CC)CC(=O)Nc1ccc2c(c1)C(=O)c1cc(NC(=O)CN(CC)CC)ccc1C2=O` [Compound 4, 2,7-Bis[2-(diethylamino)acetamido]anthraquinone]: the melting point stood at 241 °C.

In the case of `CCCCNCC(=O)Nc1ccc2c(c1)C(=O)c1cc(NC(=O)CNCCCC)ccc1C2=O` [Compound 5, 2,7-Bis[2-(butylamino)acetamido]anthraquinone], the melting point was 125 °C.
